In patent publication US12558345B2, “CHK1/2 inhibitors for use in the treatment of neuroblastomas and/or soft tissue sarcomas” (Eli Lilly and Company, priority 2015, dated 2026):
Like-named read-outs stand apart in the source and are kept apart here.

What was measured:
[1] = system: SJCRH-30 RMS xenograft; assay type: in vivo; details: SJCRH-30, RMS
Description: Expand human RMS cancer cells SJCRH-30 (St. Jude Children's Research Hospital) in culture, harvest, and inject 5×10^6 cells in 200 μL of HBSS subcutaneously into the right rear flank of female athymic nude mice (20-22 g, Harlan Laboratories).
For all studies, measure tumor growth and body weight twice per week beginning on the seventh day after implantation. When tumor size reaches 150-300 mm^3, randomize animals and group into groups of 4-7 animals. Prepare test compound in an appropriate vehicle (e.g. vehicle can be 20% Captisol® in sterile water) and administer subcutaneously for three consecutive days followed by a four day dosing holiday and repeat for a minimum of four weeks. Tumor response is determined by tumor volume measurement performed twice per week during the course of treatment.
The vehicle used in this study is 20% Captisol® in sterile water and is administered subcutaneously for three consecutive days followed by a four day dosing holiday and repeated for a minimum of four weeks. […] The treatment period lasts 4 weeks.

[2] = system: HT-29 cells; test: ECtfs (Two-Fold Sensitization) Assay; assay type: cell-based; details: gemcitabine alone
Description: An inhibitor of CHK1 can potentiate the anti-proliferative activity of gemcitabine (or other cytotoxics) through abrogation of the intra-S phase checkpoint, resulting in sustained and increased DNA damage. The capacity for continued tumor cell proliferation after DNA damage can be analyzed by determining the ability of cells to replicate their DNA. […] In this assay, cells are treated with gemcitabine, and then with the compound of Example 2. Following a recovery period, cells are assayed for the ability to incorporate radioactive thymidine into DNA during S phase. The ECtfs parameter is a measure of the concentration of a CHK1 inhibitor necessary to reduce by half the GI90 concentration of gemcitabine, measured in this assay in the absence of CHK1 inhibition. HT-29 cells (obtained from ATCC), are grown in RPMI 1640 plus (Gibco™) 10% (v/v) heat inactivated FBS. These cells are plated at 1.3×10^3 per well on Corning Costar 96-well tissue culture plates. After plating the cells, the tissue culture plates are held at room temperature for 45 minutes, before returning to 37° C. Plates are incubated for 24 hours prior to gemcitabine addition. Before gemcitabine addition, medium is removed from all wells and replaced with 150 μL per well of fresh RPMI medium. Gemcitabine stocks at 10 mM are prepared in PBS. Gemcitabine dilutions were prepared at 4× concentrations in RPMI medium and added to wells at 50 μL per well. The highest final concentration of gemcitabine used is 80 μM and dilutions proceed by four-fold steps. Two hours later, gemcitabine-containing medium is removed from the wells and replaced with 150 μL per well of fresh RPMI medium. […] The volume of addition is 50 μL. Compound dilutions proceed by two-fold steps, starting at 5000 nM. […] Twenty μL of this solution is added to each well, yielding 1 µCi/well of ^3H-thymidine. Cells are labeled for twenty-two hours. The medium containing ^3H-thymidine is thoroughly removed from the wells. The plates are then frozen at −20° C., for several hours. To harvest the DNA containing incorporated ^3H-thymidine, plates are thawed for several minutes, and then 120 μL per well of 0.1 N NaOH is added to each well. Each plate is then incubated at 37° C., with slow mixing on a rotator, for 10 minutes. DNA is harvested with a Filtermate 196 Harvester (PerkinElmer) and collected on 96-well Unifilter GF/C plates (PerkinElmer #6005174). The wells of the tissue culture plate on which cells had been labeled are washed with water (5×). The Unifilter plate membranes are washed with an additional 4.5 mL per well (3×1.0 mL and finally a 1.5 mL wash). The Unifi is sealed with a Backseal adhesive sheet (PerkinElmer), and the 50 μL/well of MicroScint-20 (Perkin Elmer) is added. Each plate is then sealed with a Topseal clear adhesive sheet (PerkinElmer). Plates are counted on a Topcount scintillation counter (PerkinElmer), at 1 minute per well. ^3H-thymidine counts per minute (cpm) are exported into Prism (GraphPad) for analysis and plotting. […] For plotting the data in Prism, the gemcitabine concentrations are transformed to log values, and dose-response curves are fit by non-linear regression. Neither top nor bottom fits are constrained. The ECtfs value is 0.3 nM.

SMILES: COc1cccc2c1C(=O)c1c(O)c3c(c(O)c1C2=O)C[C@@](O)(C(=O)CO)C[C@@H]3O[C@H]1C[C@H](N)[C@H](O)[C@H](C)O1 [Doxorubicin, reference compound]
- % T/C ([1]; comparator day 56): 16%

SMILES: Nc1ccn([C@@H]2O[C@H](CO)[C@@H](O)C2(F)F)c(=O)n1 [gemcitabine, reference compound]
- percentage of proliferation inhibition ([2]; HT29 cells): 52%
- EC50 ([2]; Homo sapiens, HT-29, HT29 colon carcinoma cells): 0.037 µM

SMILES: O=P1(NCCCl)OCCCN1CCCl (centres unmarked) [ifosphamide, reference compound]
- % T/C ([1]; comparator day 46): 34%

SMILES: CCc1c2c(nc3ccc(OC(=O)N4CCC(N5CCCCC5)CC4)cc13)-c1cc3c(c(=O)n1C2)COC(=O)[C@]3(O)CC [irinotecan, reference compound]
- % T/C ([1]; comparator day 46): 12%
